Laboratory results: the supplement of paper PMC11061612

What was measured:
Olaparib = compound: O=C(c1cc(Cc2n[nH]c(=O)c3ccccc23)ccc1F)N1CCN(C(=O)C2CC2)CC1 [Olaparib]
How it was run: (§1)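 Viability was measured with CellTiter-Glo 2.0 luminescence after 72 hours of dosing at a final DMSO of typically 0.2%, and scaled between blank-well and DMSO-well means. Beforehand, cancer cell lines sat 24 hours at 37°C and 5% CO2 in 1536-well plates in 7.5 μl DMEM/F12 or RPMI with 10% FBS. A non-linear mixed effects model fitted two-parameter logistic curves to the dose responses. The single-agent IC50 comes from these fits.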

Selumetinib = compound: Cn1cnc2c(F)c(Nc3ccc(Br)cc3Cl)c(C(=O)NOCCO)cc21 [Selumetinib]; conditions: max 10 µM
How it was run: as §1

AZD2811 = compound: CCN(CCO)CCCOc1ccc2c(Nc3cc(CC(=O)Nc4cccc(F)c4)[nH]n3)ncnc2c1 [AZD2811]; conditions: max 1 µM
How it was run: as §1

SG3199 = compound: CC1=CN2[C@@H](C1)C=NC3=CC(=C(C=C3C2=O)OC)OCCCCCOC4=C(C=C5C(=C4)N=C[C@@H]6CC(=CN6C5=O)C)OC [SG3199]; conditions: max 0.001 µM
How it was run: as §1

Trametinib = compound: CC(=O)Nc1cccc(-n2c(=O)n(C3CC3)c(=O)c3c(Nc4ccc(I)cc4F)n(C)c(=O)c(C)c32)c1 [Trametinib]; conditions: max 1 µM
How it was run: as §1

Palbociclib = compound: CC(=O)c1c(C)c2cnc(Nc3ccc(N4CCNCC4)cn3)nc2n(C2CCCC2)c1=O [Palbociclib]; conditions: max 10 µM
How it was run: as §1

Doxorubicin = compound: COc1cccc2c1C(=O)c1c(O)c3c(c(O)c1C2=O)C[C@@](O)(C(=O)CO)C[C@@H]3O[C@H]1C[C@H](N)[C@H](O)[C@H](C)O1 [Doxorubicin]; conditions: max 1 µM
How it was run: as §1

Taselisib = compound: Cc1nc(-c2cn3c(n2)-c2ccc(-c4cnn(C(C)(C)C(N)=O)c4)cc2OCC3)n(C(C)C)n1 [Taselisib]; conditions: max 10 µM
How it was run: as §1

AZD6738 = compound: C[C@@H]1COCCN1C2=NC(=NC(=C2)C3(CC3)[S@](=N)(=O)C)C4=C5C=CNC5=NC=C4 [AZD6738]; conditions: max 10 µM
How it was run: as §1

AZD0156 = compound: CN(C)CCCOc1ccc(-c2ccc3ncc4c(c3c2)n(C2CCOCC2)c(=O)n4C)cn1 [AZD0156]; conditions: max 3 µM
How it was run: as §1

Prexasertib = compound: COc1cccc(OCCCN)c1-c1cc(Nc2cnc(C#N)cn2)n[nH]1 [Prexasertib]; conditions: max 1 µM
How it was run: as §1

Venetoclax = compound: CC1(C)CCC(CN2CCN(c3ccc(C(=O)NS(=O)(=O)c4ccc(NCC5CCOCC5)c([N+](=O)[O-])c4)c(Oc4cnc5[nH]ccc5c4)c3)CC2)=C(c2ccc(Cl)cc2)C1 [Venetoclax]; conditions: max 1 µM
How it was run: as §1

AZD4320 = compound: CN(CC[C@H](CSC1=CC=CC=C1)NC2=C(C=C(C=C2)S(=O)(=O)NC(=O)C3=CC=C(C=C3)N4CCC(CC4)[C@H](C5=CC=CC=C5C6=CC=C(C=C6)Cl)O)S(=O)(=O)C(F)(F)F)CCO [AZD4320]; conditions: max 1 µM
How it was run: as §1

AZD5991 = compound: Cc1c2c(nn1C)CSCc1cc(n(C)n1)CSc1cc(c3ccccc3c1)OCCCc1c(C(=O)O)n(C)c3c-2c(Cl)ccc13 [AZD5991]; conditions: max 1 µM
How it was run: as §1

MK-2206 = compound: NC1(c2ccc(-c3nc4ccn5c(=O)[nH]nc5c4cc3-c3ccccc3)cc2)CCC1 [MK-2206]; conditions: max 10 µM
How it was run: as §1

SN-38 = compound: CCc1c2c(nc3ccc(O)cc13)-c1cc3c(c(=O)n1C2)COC(=O)[C@]3(O)CC [SN-38]; conditions: max 0.3 µM
How it was run: as §1

AZD1775 = compound: C=CCn1c(=O)c2cnc(Nc3ccc(N4CCN(C)CC4)cc3)nc2n1-c1cccc(C(C)(C)O)n1 [AZD1775]; conditions: max 3 µM
How it was run: as §1

Dasatinib = compound: CC1=C(C(=CC=C1)Cl)NC(=O)C2=CN=C(S2)NC3=CC(=NC(=N3)C)N4CCN(CC4)CCO [Dasatinib]; conditions: max 2 µM
How it was run: as §1

Alisertib = compound: COc1cc(Nc2ncc3c(n2)-c2ccc(Cl)cc2C(c2c(F)cccc2OC)=NC3)ccc1C(=O)O [Alisertib]; conditions: max 10 µM
How it was run: as §1

AZD1390 = compound: CC(C)n1c(=O)n(C)c2cnc3cc(F)c(-c4ccc(OCCCN5CCCCC5)nc4)cc3c21 [AZD1390]; conditions: max 0.3 µM
How it was run: as §1

Crizotinib = compound: C[C@@H](Oc1cc(-c2cnn(C3CCNCC3)c2)cnc1N)c1c(Cl)ccc(F)c1Cl [Crizotinib]; conditions: max 10 µM
How it was run: as §1

AZD5153 = compound: COc1nnc2ccc(N3CCC(c4ccc(OCCN5CCN(C)C(=O)[C@H]5C)cc4)CC3)nn12 [AZD5153]; conditions: max 1 µM
How it was run: as §1

Capivasertib = compound: C1CN(CCC1(C(=O)N[C@@H](CCO)C2=CC=C(C=C2)Cl)N)C3=NC=NC4=C3C=CN4 [Capivasertib]; conditions: max 10 µM
How it was run: as §1

Savolitinib = compound: C[C@@H](c1ccc2nccn2c1)n1nnc2ncc(-c3cnn(C)c3)nc21 [Savolitinib]; conditions: max 1 µM
How it was run: as §1

AZD7648 = compound: Cc1cc2ncnn2cc1Nc1ncc2c(n1)n(C1CCOCC1)c(=O)n2C [AZD7648]; conditions: max 10 µM
How it was run: as §1

AZD8186 = compound: C[C@@H](Nc1cc(F)cc(F)c1)c1cc(C(=O)N(C)C)cc2c(=O)cc(N3CCOCC3)oc12 [AZD8186]; conditions: max 3 µM
How it was run: as §1

Gefitinib = compound: COc1cc2ncnc(Nc3ccc(F)c(Cl)c3)c2cc1OCCCN1CCOCC1 [Gefitinib]; conditions: max 10 µM
How it was run: as §1

Lapatinib = compound: CS(=O)(=O)CCNCc1ccc(-c2ccc3ncnc(Nc4ccc(OCc5cccc(F)c5)c(Cl)c4)c3c2)o1 [Lapatinib]; conditions: max 10 µM
How it was run: as §1

Row | Cell Line | IC50, cell viability 72 h (Olaparib; max 10 µM) | IC50, cell viability 72 h (Selumetinib) | IC50, cell viability 72 h (AZD2811) | IC50, cell viability 72 h (SG3199) | IC50, cell viability 72 h (Trametinib) | IC50, cell viability 72 h (Palbociclib) | IC50, cell viability 72 h (Doxorubicin) | IC50, cell viability 72 h (Taselisib) | IC50, cell viability 72 h (AZD6738) | IC50, cell viability 72 h (AZD0156) | IC50, cell viability 72 h (Prexasertib) | IC50, cell viability 72 h (Venetoclax) | IC50, cell viability 72 h (AZD4320) | IC50, cell viability 72 h (AZD5991) | IC50, cell viability 72 h (MK-2206) | IC50, cell viability 72 h (SN-38) | IC50, cell viability 72 h (AZD1775) | IC50, cell viability 72 h (Dasatinib) | IC50, cell viability 72 h (Alisertib) | IC50, cell viability 72 h (AZD1390) | IC50, cell viability 72 h (Crizotinib) | IC50, cell viability 72 h (AZD5153) | IC50, cell viability 72 h (Capivasertib) | IC50, cell viability 72 h (Savolitinib) | IC50, cell viability 72 h (AZD7648) | IC50, cell viability 72 h (AZD8186) | IC50, cell viability 72 h (Gefitinib) | IC50, cell viability 72 h (Lapatinib) | IC50, cell viability 72 h (Olaparib; max 3 µM)
1 | NCI-H446 (Small Cell Lung Carcinoma) | > 10 µM | > 10 µM | 0.0428 µM | > 0.001 µM | > 1 µM | > 10 µM | 0.499 µM | 2.86 µM | 4.15 µM | > 3 µM | 0.0193 µM | > 1 µM | 0.557 µM | > 1 µM | 4.5 µM | 0.0626 µM | 0.4 µM | > 2 µM | 0.0548 µM | > 0.3 µM | 1.72 µM | 0.209 µM | 2.66 µM | > 1 µM | > 10 µM | > 3 µM | > 10 µM | 6.4 µM | –
2 | OAW-42 (Ovarian Carcinoma) | – | > 10 µM | > 1 µM | – | > 1 µM | > 10 µM | – | 0.441 µM | > 10 µM | > 3 µM | 0.463 µM | > 1 µM | > 1 µM | > 1 µM | 3 µM | 0.0295 µM | > 3 µM | 0.909 µM | 4.55 µM | > 0.3 µM | > 10 µM | > 1 µM | > 10 µM | > 1 µM | > 10 µM | > 3 µM | > 10 µM | > 10 µM | > 3 µM
3 | RERF-GC-1B (Gastric Carcinoma) | > 10 µM | > 10 µM | > 1 µM | > 0.001 µM | 0.462 µM | > 10 µM | 0.525 µM | 1.65 µM | > 10 µM | > 3 µM | 0.717 µM | > 1 µM | > 1 µM | 0.159 µM | > 10 µM | 0.0609 µM | 0.401 µM | 0.0282 µM | 3.28 µM | > 0.3 µM | 7.14 µM | 0.587 µM | > 10 µM | > 1 µM | > 10 µM | > 3 µM | > 10 µM | > 10 µM | –
4 | RERF-LC-Sq1 (Squamous Cell Lung Carcinoma) | > 10 µM | > 10 µM | > 1 µM | > 0.001 µM | 0.179 µM | 6.6 µM | 1 µM | 0.427 µM | 4.11 µM | > 3 µM | 0.0366 µM | > 1 µM | > 1 µM | > 1 µM | – | 0.167 µM | 0.681 µM | > 2 µM | > 10 µM | > 0.3 µM | > 10 µM | 0.768 µM | 1.6 µM | > 1 µM | > 10 µM | > 3 µM | 3.12 µM | 2.64 µM | –
5 | SF268 (Low Grade Glioma) | > 10 µM | > 10 µM | > 1 µM | > 0.001 µM | > 1 µM | > 10 µM | > 1 µM | > 10 µM | > 10 µM | > 3 µM | 0.643 µM | > 1 µM | > 1 µM | > 1 µM | – | 0.0235 µM | > 3 µM | > 2 µM | 7.28 µM | > 0.3 µM | > 10 µM | > 1 µM | > 10 µM | > 1 µM | > 10 µM | > 3 µM | > 10 µM | > 10 µM | –
6 | SU-DHL-10 (B-Cell Non-Hodgkin's Lymphoma) | > 10 µM | > 10 µM | 0.0292 µM | > 0.001 µM | > 1 µM | 0.435 µM | 0.442 µM | 1.34 µM | 2.62 µM | > 3 µM | 0.0272 µM | > 1 µM | > 1 µM | 0.0255 µM | – | 0.013 µM | 0.586 µM | 0.0628 µM | 0.684 µM | > 0.3 µM | 2.48 µM | 0.0095 µM | 0.505 µM | > 1 µM | > 10 µM | 1.08 µM | 7.02 µM | 4.97 µM | –
7 | WM278 (Melanoma) | > 10 µM | 3.57 µM | > 1 µM | > 0.001 µM | 0.0858 µM | > 10 µM | > 1 µM | > 10 µM | > 10 µM | > 3 µM | 0.413 µM | > 1 µM | > 1 µM | > 1 µM | – | 0.2 µM | > 3 µM | > 2 µM | > 10 µM | > 0.3 µM | > 10 µM | > 1 µM | > 10 µM | > 1 µM | > 10 µM | > 3 µM | > 10 µM | > 10 µM | –
8 | WM793B (Melanoma) | > 10 µM | 7.02 µM | > 1 µM | > 0.001 µM | 0.175 µM | > 10 µM | 0.471 µM | 2.8 µM | 3.1 µM | > 3 µM | 0.0278 µM | > 1 µM | > 1 µM | > 1 µM | – | 0.0228 µM | 1.93 µM | > 2 µM | > 10 µM | > 0.3 µM | > 10 µM | 0.493 µM | > 10 µM | > 1 µM | > 10 µM | > 3 µM | > 10 µM | > 10 µM | –
